Laboratory results taken from ChEMBL document CHEMBL1201862, “PubChem BioAssay data set” (2004).
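Assay format: 96-well plates, 48-hour exposure. Abbreviation: GI50, concentration required for 50% inhibition of growth.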 Activity calls are given as the source filed them. No stated cut-off is given here; in the data, active = GI50 up to about 1.1 µM and inactive = higher.

Tests used:
Assay in all cases: NCI tumour cell line growth inhibition, 48 h
KM12 = system: KM12
SNB-19 = system: SNB-19
RPMI-8226 = system: RPMI-8226
MDA-MB-231 = system: MDA-MB-231
Malme-3M = system: Malme-3M
U-251 = system: U-251
MCF7 = system: MCF7
786-0 = system: 786-0
SF-268 = system: SF-268
HOP-62 = system: HOP-62
NCI-H522 = system: NCI-H522
UACC-257 = system: UACC-257
BT-549 = system: BT-549
MOLT-4 = system: MOLT-4
NCI/ADR-RES = system: NCI/ADR-RES
M14 = system: M14
SR = system: SR
SK-MEL-5 = system: SK-MEL-5
HCT-116 = system: HCT-116
MDA-MB-435 = system: MDA-MB-435
IGROV-1 = system: IGROV-1
K562 = system: K562
A549 = system: A549
HT-29 = system: HT-29
HCT-15 = system: HCT-15
SF-295 = system: SF-295
OVCAR-3 = system: OVCAR-3
DU-145 = system: DU-145
HL-60 = system: HL-60
TK-10 = system: TK-10
EKVX = system: EKVX
CCRF-CEM = system: CCRF-CEM
SK-MEL-28 = system: SK-MEL-28
ACHN = system: ACHN
NCI-H460 = system: NCI-H460
SN12C = system: SN12C
OVCAR-8 = system: OVCAR-8
T47D = system: T47D
OVCAR-5 = system: OVCAR-5
UACC-62 = system: UACC-62
PC-3 = system: PC-3
SK-MEL-2 = system: SK-MEL-2
OVCAR-4 = system: OVCAR-4
RXF 393 = system: RXF 393
HCC 2998 = system: HCC 2998
COLO 205 = system: COLO 205
SW-620 = system: SW-620
A498 = system: A498
UO-31 = system: UO-31
SF-539 = system: SF-539
CAKI-1 = system: CAKI-1
SNB-75 = system: SNB-75
SK-OV-3 = system: SK-OV-3
Hs-578T = system: Hs-578T
LOX IMVI = system: LOX IMVI
NCI-H226 = system: NCI-H226
NCI-H23 = system: NCI-H23
HOP-92 = system: HOP-92

O=C(C#Cc1ccccc1)C1=Cc2ccccc2OC1
GI50 (KM12): 4.25 µM (inactive)
GI50 (SNB-19): 15 µM (inactive)
GI50 (RPMI-8226): 2.71 µM (inactive)
GI50 (MDA-MB-231): 3.21 µM (inactive)
GI50 (Malme-3M): 4.2 µM (inactive)
GI50 (U-251): 3.6 µM (inactive)
GI50 (MCF7): 1.42 µM (inactive)
GI50 (786-0): 2.4 µM (inactive)
GI50 (SF-268): 5.5 µM (inactive)
GI50 (HOP-62): 13.6 µM (inactive)
GI50 (NCI-H522): 1.37 µM (inactive)
GI50 (UACC-257): 2.7 µM (inactive)
GI50 (BT-549): 2.16 µM (inactive)
GI50 (MOLT-4): 3.33 µM (inactive)
GI50 (NCI/ADR-RES): 2.79 µM (inactive)
GI50 (M14): 3.01 µM (inactive)
GI50 (SR): 7.23 µM (inactive)
GI50 (SK-MEL-5): 2.08 µM (inactive)
GI50 (HCT-116): 1.92 µM (inactive)
GI50 (MDA-MB-435): 3.86 µM (inactive)
GI50 (IGROV-1): 2.38 µM (inactive)
GI50 (K562): 2.61 µM (inactive)
GI50 (A549): 9.31 µM (inactive)
GI50 (HT-29): 2.11 µM (inactive)
GI50 (HCT-15): 2.37 µM
GI50 (SF-295): 20.7 µM (inactive)
GI50 (OVCAR-3): 2.35 µM (inactive)
GI50 (DU-145): 5.53 µM (inactive)
GI50 (HL-60): 2.19 µM (inactive)
GI50 (TK-10): 1.9 µM (inactive)
GI50 (EKVX): 2.09 µM (inactive)
GI50 (CCRF-CEM): 0.198 µM (active)
GI50 (SK-MEL-28): 7.53 µM (inactive)
GI50 (ACHN): 2.17 µM (inactive)
GI50 (NCI-H460): 4.83 µM (inactive)
GI50 (SN12C): 3.85 µM (inactive)
GI50 (OVCAR-8): 2.39 µM (inactive)
GI50 (T47D): 3.26 µM (inactive)
GI50 (OVCAR-5): 2.99 µM (inactive)
GI50 (UACC-62): 1.94 µM (inactive)
GI50 (PC-3): 4.34 µM (inactive)
GI50 (SK-MEL-2): 3.94 µM (inactive)
GI50 (OVCAR-4): 3.34 µM (inactive)
GI50 (RXF 393): 3 µM (inactive)
GI50 (HCC 2998): 7.38 µM (inactive)
GI50 (COLO 205): 1.92 µM (inactive)
GI50 (SW-620): 2.22 µM (inactive)
GI50 (A498): 19.2 µM (inactive)
GI50 (UO-31): 2.06 µM (inactive)
GI50 (SF-539): 1.93 µM (inactive)
GI50 (CAKI-1): 1.88 µM (inactive)
GI50 (SNB-75): 6.14 µM (inactive)
GI50 (SK-OV-3): 15 µM (inactive)
GI50 (Hs-578T): 8.26 µM (inactive)
GI50 (LOX IMVI): 0.783 µM (active)
GI50 (NCI-H226): 2.55 µM (inactive)
GI50 (NCI-H23): 2.14 µM (inactive)

CN(C)/C=N/S(=O)(=O)c1nn2c(C=O)c(-c3ccc(-c4ccccc4)cc3)nc2s1
GI50 (KM12): 2.48 µM (inactive)
GI50 (SNB-19): 11.9 µM (inactive)
GI50 (RPMI-8226): 0.83 µM (active)
GI50 (MDA-MB-231): 2.99 µM (inactive)
GI50 (Malme-3M): 1.32 µM (inactive)
GI50 (U-251): 2.01 µM (inactive)
GI50 (MCF7): 0.838 µM (active)
GI50 (786-0): 0.927 µM (active)
GI50 (SF-268): 2.1 µM (inactive)
GI50 (HOP-62): 8.61 µM (inactive)
GI50 (NCI-H522): 0.385 µM (active)
GI50 (UACC-257): 2.97 µM (inactive)
GI50 (BT-549): 0.83 µM (active)
GI50 (MOLT-4): 0.283 µM (active)
GI50 (NCI/ADR-RES): 8.57 µM (inactive)
GI50 (M14): 0.904 µM (active)
GI50 (SR): 0.49 µM (active)
GI50 (HOP-92): 2.65 µM (inactive)
GI50 (SK-MEL-5): 1.61 µM (inactive)
GI50 (HCT-116): 1 µM (active)
GI50 (MDA-MB-435): 1.69 µM (inactive)
GI50 (IGROV-1): 1.24 µM (inactive)
GI50 (K562): 0.316 µM (active)
GI50 (A549): 11.5 µM (inactive)
GI50 (HT-29): 0.347 µM (active)
GI50 (HCT-15): 2.26 µM
GI50 (SF-295): 14.4 µM (inactive)
GI50 (OVCAR-3): 1.92 µM (inactive)
GI50 (DU-145): 2.4 µM (inactive)
GI50 (HL-60): 0.141 µM (active)
GI50 (TK-10): 1.83 µM (inactive)
GI50 (EKVX): 5.89 µM (inactive)
GI50 (CCRF-CEM): 0.145 µM (active)
GI50 (SK-MEL-28): 1.98 µM (inactive)
GI50 (ACHN): 1.57 µM (inactive)
GI50 (NCI-H460): 5.51 µM (inactive)
GI50 (SN12C): 1.97 µM (inactive)
GI50 (OVCAR-8): 5.28 µM (inactive)
GI50 (T47D): 1.95 µM (inactive)
GI50 (OVCAR-5): 6.89 µM (inactive)
GI50 (UACC-62): 2.34 µM (inactive)
GI50 (PC-3): 2 µM (inactive)
GI50 (SK-MEL-2): 2.69 µM (inactive)
GI50 (OVCAR-4): 1.96 µM (inactive)
GI50 (RXF 393): 1.71 µM (inactive)
GI50 (HCC 2998): 6 µM (inactive)
GI50 (COLO 205): 2.56 µM (inactive)
GI50 (SW-620): 0.724 µM (active)
GI50 (A498): 21.3 µM (inactive)
GI50 (UO-31): 1.4 µM (inactive)
GI50 (SF-539): 2.54 µM (inactive)
GI50 (CAKI-1): 1.31 µM (inactive)
GI50 (SNB-75): 4.12 µM (inactive)
GI50 (SK-OV-3): 15.1 µM (inactive)
GI50 (Hs-578T): 3.09 µM (inactive)
GI50 (LOX IMVI): 0.753 µM (active)
GI50 (NCI-H226): 13.3 µM (inactive)
GI50 (NCI-H23): 1.78 µM (inactive)
